Tests used:
Assay type in all cases: cell-based
[1] = molecular target: T1, human muscarinic M1 receptor (Homo sapiens, UniProt P11229); test: Alphascreen Surefire phospho-ERK1/2 functional assay, M1; settings: for EC50: CHO cells stably expressing human M1, read-out: pEC50 M1 (converted); for % Emax cf. ACh, M1: CHO cells stably expressing human M1, relative to ACh; for Emax: CHO, read-out: % Emax cf. ACh, M1, CHO cells stably expressing human M1, relative to ACh
T1 sequence (P11229 1-460): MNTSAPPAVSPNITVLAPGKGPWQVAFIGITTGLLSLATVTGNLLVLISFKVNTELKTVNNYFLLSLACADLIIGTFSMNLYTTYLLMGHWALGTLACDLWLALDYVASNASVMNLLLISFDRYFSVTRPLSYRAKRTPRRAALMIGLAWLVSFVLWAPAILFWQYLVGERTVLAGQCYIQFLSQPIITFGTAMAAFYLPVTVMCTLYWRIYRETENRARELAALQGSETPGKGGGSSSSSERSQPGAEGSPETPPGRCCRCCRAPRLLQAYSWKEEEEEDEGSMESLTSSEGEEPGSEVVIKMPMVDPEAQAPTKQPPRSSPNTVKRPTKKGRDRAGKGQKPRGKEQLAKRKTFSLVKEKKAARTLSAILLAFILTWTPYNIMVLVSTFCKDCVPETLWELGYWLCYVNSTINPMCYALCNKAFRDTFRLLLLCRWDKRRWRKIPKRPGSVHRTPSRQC

[2] = molecular target: T2, human muscarinic M2 receptor (Homo sapiens, UniProt P08172); test: Alphascreen Surefire phospho-ERK1/2 functional assay, M2; settings: for EC50: CHO cells stably expressing human M2, read-out: pEC50 M2 (converted); for % Emax cf. ACh, M2: CHO cells stably expressing human M2, relative to ACh; for Emax: CHO, read-out: % Emax cf. ACh, M2, CHO cells stably expressing human M2, relative to ACh
T2 sequence (P08172 1-466): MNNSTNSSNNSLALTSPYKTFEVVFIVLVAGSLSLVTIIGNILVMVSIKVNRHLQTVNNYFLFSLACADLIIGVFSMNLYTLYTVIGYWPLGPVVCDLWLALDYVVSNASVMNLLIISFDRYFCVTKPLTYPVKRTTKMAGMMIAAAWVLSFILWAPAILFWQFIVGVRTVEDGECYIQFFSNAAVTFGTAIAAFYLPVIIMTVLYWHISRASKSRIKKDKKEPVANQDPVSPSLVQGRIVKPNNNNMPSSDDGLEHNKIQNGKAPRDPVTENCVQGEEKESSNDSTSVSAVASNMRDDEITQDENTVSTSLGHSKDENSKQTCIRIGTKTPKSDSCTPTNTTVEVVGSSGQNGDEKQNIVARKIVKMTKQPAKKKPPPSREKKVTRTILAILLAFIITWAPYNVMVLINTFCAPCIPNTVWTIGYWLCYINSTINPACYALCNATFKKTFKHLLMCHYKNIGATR
Experimental: (§1) ERK1/2 phosphorylation is a downstream consequence of both Gq/11 and Gi/o protein coupled receptor activation, making it highly suitable for the assessment of M1, M3 (Gq/11 coupled) and M2, M4 receptors (Gi/o coupled), rather than using different assay formats for different receptor subtypes. CHO cells stably expressing the human muscarinic M1, M2, M3 or M4 receptor were plated (25K/well) onto 96-well tissue culture plates in MEM-alpha+10% dialysed FBS. Once adhered, cells were serum-starved overnight. Agonist stimulation was performed by the addition of 5 μL agonist to the cells for 5 min (37° C.). Media was removed and 50 μL of lysis buffer added. […] Plates were incubated for 2 h with gentle agitation in the dark and then read on a PHERAstar plate reader.
(§2) pEC50 and Emax figures were calculated from the resulting data for each receptor subtype.

[3] = molecular target: T3, human muscarinic M3 receptor (Homo sapiens, UniProt P20309); test: Alphascreen Surefire phospho-ERK1/2 functional assay, M3; settings: for EC50: CHO cells stably expressing human M3, read-out: pEC50 M3 (converted); for % Emax cf. ACh, M3: CHO cells stably expressing human M3, relative to ACh; for Emax: CHO, read-out: % Emax cf. ACh, M3, CHO cells stably expressing human M3, relative to ACh
T3 construct: expressed in transfected cells
Experimental: as §1, §2

[4] = molecular target: T4, human muscarinic M4 receptor (Homo sapiens, UniProt P08173); test: Alphascreen Surefire phospho-ERK1/2 functional assay, M4; settings: for EC50: CHO cells stably expressing human M4, read-out: pEC50 M4 (converted); for % Emax cf. ACh, M4: CHO cells stably expressing human M4, relative to ACh; for Emax: CHO, read-out: % Emax cf. ACh, M4, CHO cells stably expressing human M4, relative to ACh
T4 construct: expressed in transfected cells
T4 sequence (P08173 1-479): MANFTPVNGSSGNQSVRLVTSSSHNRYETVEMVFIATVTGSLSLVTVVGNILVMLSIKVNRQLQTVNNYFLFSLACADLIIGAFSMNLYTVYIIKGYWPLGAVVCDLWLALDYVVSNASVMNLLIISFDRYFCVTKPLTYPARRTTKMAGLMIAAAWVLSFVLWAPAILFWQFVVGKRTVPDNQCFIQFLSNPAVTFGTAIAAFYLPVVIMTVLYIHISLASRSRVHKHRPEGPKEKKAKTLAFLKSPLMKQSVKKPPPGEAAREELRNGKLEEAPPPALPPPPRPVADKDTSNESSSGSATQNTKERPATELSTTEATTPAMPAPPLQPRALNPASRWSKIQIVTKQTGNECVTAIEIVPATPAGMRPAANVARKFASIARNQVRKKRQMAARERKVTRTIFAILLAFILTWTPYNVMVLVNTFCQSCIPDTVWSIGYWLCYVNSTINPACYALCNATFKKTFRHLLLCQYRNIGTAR

T3 sequence (P20309 whole entry): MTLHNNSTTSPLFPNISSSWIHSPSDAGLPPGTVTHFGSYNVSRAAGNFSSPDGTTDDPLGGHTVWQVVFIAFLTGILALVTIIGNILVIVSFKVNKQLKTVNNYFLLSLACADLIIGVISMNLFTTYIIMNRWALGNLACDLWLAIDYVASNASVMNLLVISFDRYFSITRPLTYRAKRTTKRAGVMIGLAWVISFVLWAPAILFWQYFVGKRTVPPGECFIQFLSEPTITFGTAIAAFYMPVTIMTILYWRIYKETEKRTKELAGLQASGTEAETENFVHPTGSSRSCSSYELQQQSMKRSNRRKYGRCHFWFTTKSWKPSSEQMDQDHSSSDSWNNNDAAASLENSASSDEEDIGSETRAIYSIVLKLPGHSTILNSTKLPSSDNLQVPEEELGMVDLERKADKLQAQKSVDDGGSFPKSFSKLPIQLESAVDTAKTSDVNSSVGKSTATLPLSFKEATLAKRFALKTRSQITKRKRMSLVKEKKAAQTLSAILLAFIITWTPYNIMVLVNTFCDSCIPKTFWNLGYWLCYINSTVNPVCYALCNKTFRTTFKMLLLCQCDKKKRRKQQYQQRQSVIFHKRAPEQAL

| SMILES | EC50 [1] [nM] | EC50 [2] [nM] | EC50 [3] [nM] | EC50 [4] [nM] | Emax [1] [%] | Emax [2] [%] | Emax [4] [%] | further results |
| --- | --- | --- | --- | --- | --- | --- | --- | --- |
| CCOC(=O)N1CC2CCC1CC2N1CCC2(CC1)CNC(=O)C2 (single isomer, unassigned) [Example 3-1 Isomer 1, ethyl 5-(3-oxo-2,8-diazaspiro[4.5]dec-8-yl)-2-azabicyclo[2.2.2]octane-2-carboxylate] | 1.26 | 10 | > 20000 | 3.98 |  |  |  | % Emax cf. ACh, M1 ([1]; listed as 3-1 Isomer 1): 111%; % Emax cf. ACh, M2 ([2]; listed as 3-1 Isomer 1): 63%; % Emax cf. ACh, M3 ([3]; listed as 3-1 Isomer 1): 6%; % Emax cf. ACh, M4 ([4]; listed as 3-1 Isomer 1): 61% |
| CCOC(=O)N1CC2CC(N3CCC4(CC3)CNC(=O)O4)CC1C2 (single isomer, unassigned) [Example 6-3 Isomer 2] | 25.1 | 1260 | > 20000 | 39.8 | 112 | 24 | 81 | Emax [3]: 48% |
| CCOC(=O)N1C2CC[C@@H]1C[C@H](N1CCC3(CC1)CC(=O)N(O)C3)C2 [Example 2-24, ethyl (3-endo)-3-(2-hydroxy-3-oxo-2,8-diazaspiro[4.5]dec-8-yl)-8-azabicyclo[3.2.1]octane-8-carboxylate] | 63.1 | > 20000 | > 20000 | > 20000 | 88 | 4 | 29 | Emax [3]: 4% |
| CCOC(=O)N1CC2CCC1CC2N1CCC2(CC1)CNC(=O)C2 (single isomer, unassigned) [Example 3-1 Isomer 2, ethyl 5-(3-oxo-2,8-diazaspiro[4.5]dec-8-yl)-2-azabicyclo[2.2.2]octane-2-carboxylate] | 63.1 | > 20000 |  | 251 |  |  |  | % Emax cf. ACh, M1 ([1]; listed as 3-1 Isomer 2): 94%; % Emax cf. ACh, M2 ([2]; listed as 3-1 Isomer 2): 11%; % Emax cf. ACh, M3 ([3]; listed as 3-1 Isomer 2): 1%; % Emax cf. ACh, M4 ([4]; listed as 3-1 Isomer 2): 31% |
| CCOC(=O)N1C2CCCC1CC(N1CCC3(CC1)CNC(=O)C3)C2 (single isomer, unassigned) [Example 5-1 Isomer 2, ethyl 3-(3-oxo-2,8-diazaspiro[4.5]dec-8-yl)-9-azabicyclo[3.3.1]nonane-9-carboxylate] | 158 | > 20000 |  | > 20000 |  |  |  | % Emax cf. ACh, M1 ([1]; listed as 5-1 Isomer 2): 77%; % Emax cf. ACh, M2 [2]: 14%; % Emax cf. ACh, M3 [3]: 6%; % Emax cf. ACh, M4 ([4]; listed as 5-1 Isomer 2): 8% |
| CCOC(=O)N1C2CCC1CC(N1CCC3(CC1)OC(=O)NC3C(C)C)C2 (single isomer, unassigned) [Example 2-17 Isomer 1] | 31.6 | > 20000 | > 20000 | 20 |  | 2 |  | % Emax cf. ACh, M1 ([1]; listed as 2-17 Isomer 1): 58%; % Emax cf. ACh, M3 ([3]; listed as 2-17 Isomer 1): 51%; % Emax cf. ACh, M4 ([4]; listed as 2-17 Isomer 1): 25% |
| CCOC(=O)N1CC2CCC1CC2N1CCC2(CC1)CNC(=O)C2 (single isomer, unassigned) [Example 3-1 Isomer 3, ethyl 5-(3-oxo-2,8-diazaspiro[4.5]dec-8-yl)-2-azabicyclo[2.2.2]octane-2-carboxylate] | 39.8 | > 20000 |  | 158 |  |  |  | % Emax cf. ACh, M1 ([1]; listed as 3-1 Isomer 3): 101%; % Emax cf. ACh, M2 ([2]; listed as 3-1 Isomer 3): 17%; % Emax cf. ACh, M3 ([3]; listed as 3-1 Isomer 3): 16%; % Emax cf. ACh, M4 ([4]; listed as 3-1 Isomer 3): 41% |
| CCOC(=O)N1C2CCC1CC(N1CCC3(CC1)CC(=O)NC3CC)C2 (single isomer, unassigned) [Example 2-8 Isomer 2, ethyl 3-(1-ethyl-3-oxo-2,8-diazaspiro[4.5]decan-8-yl)-8-azabicyclo [3.2.1]octane-8-carboxylate] | 100 |  | > 20000 | 31.6 |  |  |  | % Emax cf. ACh, M1 ([1]; listed as 2-8 Isomer 2): 89%; % Emax cf. ACh, M2 [2]: 6%; % Emax cf. ACh, M3 ([3]; listed as 2-8 Isomer 2): 12%; % Emax cf. ACh, M4 ([4]; listed as 2-8 Isomer 2): 59% |
| [2H]C([2H])([2H])C([2H])([2H])OC(=O)N1C2CCC1CC(N1CCC3(CC1)CNC(=O)C3)C2 (single isomer, unassigned) [Example 2-32 Isomer 1] | 79.4 | > 20000 | > 20000 | 126 | 92 | 16 | 40 | % Emax cf. ACh, M3 ([3]; listed as 2-32 Isomer 1): 10% |
| CCOC(=O)N1C2CCC1CC(N1CCC3(CC1)CC(=O)NC3Cc1ccccc1)C2 (single isomer, unassigned) [Example 2-10 Isomer 1] | 20 | > 20000 | > 20000 | 79.4 | 74 |  |  | % Emax cf. ACh, M2 ([2]; listed as 2-10 Isomer 1): 1%; % Emax cf. ACh, M3 ([3]; listed as 2-10 Isomer 1): 5%; % Emax cf. ACh, M4 ([4]; listed as 2-10 Isomer 1): 21% |
| CCOC(=O)N1C2CCC1CC(N1CCC3(CC1)CC(=O)NC3Cc1ccccc1)C2 (single isomer, unassigned) [Example 2-10 Isomer 2] | 63.1 |  |  | 126 |  |  |  | % Emax cf. ACh, M1 [1]: 77%; % Emax cf. ACh, M2 ([2]; listed as 2-10 Isomer 2): 11%; % Emax cf. ACh, M3 ([3]; listed as 2-10 Isomer 2): 13%; % Emax cf. ACh, M4 ([4]; listed as 2-10 Isomer 2): 50% |
| CCOC(=O)N1C2CCC1CC(N1CCCC3(CC1)CNC(=O)C3)C2 (single isomer, unassigned) [Example 9-1 Isomer 2, ethyl 3-(3-oxo-2,8-diazaspiro[4.6]undec-8-yl)-8-azabicyclo[3.2.1]octane-8-carboxylate] | 3.98 | > 20000 | > 20000 | 2.51 | 103 | 12 | 60 | Emax [3]: 22% |

Source: US12202843B2, “Muscarinic receptor agonists” (Nxera Pharma UK Limited, priority 2014, dated 2025)
